Reference: article PMC3528830 (ACS chemical biology, 2012)

Experiments:
r(CUG)10-MBNL1 complex = experiment: qTR-FRET assay, disruption of pre-formed r; type: biochemical; details: read-out: IC50 for r(CUG)-MBNL1, pre-formed r(CUG)10-MBNL1 complex, displacement
tRNA = experiment: RNA binding assay; set-up: species or system yeast; details: read-out: tRNA Kd
r(CUG)12×2 = details: read-out: r(CUG)12×2 Kd; data taken from a previous report; cited from earlier work

In the case of `NC1C(O)[C@H](OC2[C@H](N)CC(N)[C@@H](O[C@H]3OC(CNC(=O)CCCc4cn(CCCNC(=S)Nc5ccc(-c6c7ccc(=O)cc-7oc7cc(O)ccc67)c(C(=O)O)c5)nn4)[C@@H](O)[C@H](O)C3O)[C@@H]2O)OC(CO)[C@@H]1O` (stereo partly shown) [FITC-K], the IC50 (r(CUG)10-MBNL1 complex) is listed as greater than 250 µM, the Kd (tRNA) is listed as greater than 10 µM and the Kd (r(CUG)12×2) is listed as 1 ± 0.25 µM.

B1: MBNL1: muscleblind-like 1 protein, RNA splicing regulator (protein, UniProt Q9NR56 1-388, looked up)
Muscleblind-like protein 1: MAVSVTPIRDTKWLTLEVCREFQRGTCSRPDTECKFAHPSKSCQVENGRVIACFDSLKGRCSRENCKYLHPPPHLKTQLEINGRNNLIQQKNMAMLAQQMQLANAMMPGAPLQPVPMFSVAPSLATNASAAAFNPYLGPVSPSLVPAEILPTAPMLVTGNPGVPVPAAAAAAAQKLMRTDRLEVCREYQRGNCNRGENDCRFAHPADSTMIDTNDNTVTVCMDYIKGRCSREKCKYFHPPAHLQAKIKAAQYQVNQAAAAQAAATAAAMTQSAVKSLKRPLEATFDLGIPQAVLPPLPKRPALEKTNGATAVFNTGIFQYQQALANMQLQQHTAFLPPVPMVHGATPATVSAATTSATSVPFAATATANQIPIISAEHLTSHKYVTQM
For B1, the Kd (r(CUG)12×2) is given as 0.25 µM.
